Key:
Format in all cases: in vivo
[1] = tested on: galium (catchweed bedstraw, Galium aparine); experiment: Test D pre-/postemergence: galium
Summary of the method: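 Scores run from 0 (no effect) to 100 (complete control), assigned by visual comparison with controls after 14 to 21 days in a controlled environment. Both preemergence application to silt loam and postemergence application to 1- to 4-leaf plants were tested.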

[2] = tested on: pigweed (Amaranthus retroflexus); experiment: Test D pre-/postemergence: pigweed
Source text: (§1) Seeds of plant species selected from bluegrass (annual bluegrass, Poa annua), blackgrass (Alopecurus myosuroides), canarygrass (Phalaris minor), chickweed (common chickweed, Stellaria media), galium (catchweed bedstraw, Galium aparine), bromegrass, downy (downy bromegrass, Bromus tectorum), field poppy (Papaver rhoeas), field violet (Viola arvensis), foxtail, green (green foxtail, Setaria viridis), deadnettle (henbit deadnettle, Lamium amplexicaule), ryegrass, Italian (Italian ryegrass, Lolium multiflorum), kochia (Kochia scoparia), lambsquarters (Chenopodium album), oilseed rape (Brassica napus), pigweed (Amaranthus retroflexus), Russian thistle (Salsola iberica), chamomile (scentless chamomile, Matricaria inodora), speedwell (bird's-eye speedwell, Veronica persica), barley, spring (spring barley, Hordeum vulgare), wheat, spring (spring wheat, Triticum aestivum), buckwheat, wild (wild buckwheat, Polygonum convolvulus), mustard, wild (wild mustard, Sinapis arvensis), oat, wild (wild oat, Avena fatua), radish, wild (wild radish, Raphanus raphanistrum), windgrass (Apera spica-venti), barley, winter (winter barley, Hordeum vulgare), and wheat, winter (winter wheat, Triticum aestivum) were planted into a silt loam soil and treated preemergence with test chemicals formulated in a non-phytotoxic solvent mixture which included a surfactant. At the same time, these same crop and weed species were planted in pots containing the planting medium comprising spaghnum peat moss, vermiculite, wetting agent and starter nutrients and treated with postemergence applications of the test chemicals formulated in the same manner. Plants ranged in height from 2 to 18 cm (1- to 4-leaf stage).
(§2) Treated plants and controls were maintained in a controlled growth environment for 14 to 21 days after which time all species were compared to controls and visually evaluated. Plant response ratings, summarized in Table D, are based on a scale of 0 to 100 where 0 is no effect and 100 is complete control. A dash (-) response means no test result.

[3] = tested on: buckwheat, wild (wild buckwheat, Polygonum convolvulus); experiment: Test D pre-/postemergence: buckwheat, wild
Source text: as §1, §2

[4] = tested on: barnyardgrass (Echinochloa crus-galli); experiment: Test C flooded paddy test: barnyardgrass; conditions: scale 0 to 100 (0 no effect, 100 complete control)
Summary of the method: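 Greenhouse plants treated at the 2-leaf stage by dosing the flood water (3 cm depth, maintained) were compared with controls after 13 to 15 days and rated 0 to 100, where 100 means complete control; a dash marks no test result.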

[5] = tested on: ryegrass, Italian (Italian ryegrass, Lolium multiflorum); experiment: Test F pre-/postemergence: ryegrass, Italian
Source text: (§3) Seeds of plant species selected from corn (Zea mays), soybean (Glycine max), velvetleaf (Abutilon theophrasti), lambsquarters (Chenopodium album), poinsettia, wild (wild poinsettia, Euphorbia heterophylla), pigweed, palmer (palmer pigweed, Amaranthus palmeri), waterhemp (common waterhemp, Amaranthus rudis), surinam grass (Brachiaria decumbens), crabgrass, Brazil (Brazilian crabgrass, Digitaria horizontalis), panicum, fall (fall panicum Panicum dichotomiflorum), crabgrass, large (large crabgrass, Digitaria sanguinalis), foxtail, giant (giant foxtail, Setaria faberii), foxtail, green (green foxtail Setaria viridis), goosegrass (Eleusine indica), ragweed (common ragweed, Ambrosia elatior), barnyardgrass (Echinochloa crus-galli), sandbur (southern sandbur, Cenchrus echinatus), arrowleaf sida (Sida rhombifolia), ryegrass, Italian (Italian ryegrass, Lolium multiflorum), dayflower, VA (Virginia (VA) dayflower, Commelina virginica), field bindweed (Convolvulus arvensis), cocklebur (common cocklebur, Xanthium strumarium), morningglory (Ipomoea coccinea), nightshade (eastern black nightshade, Solanum ptycanthum), kochia (Kochia scoparia), nutsedge, yellow (yellow nutsedge, Cyperus esculentus), johnsongrass (Sorghum halepense), smartweed (ladysthumb smartweed, Polygonum persicaria), and beggarticks (hairy beggarticks, Bidens pilosa), were planted into a silt loam soil and treated preemergence with test chemicals formulated in a non-phytotoxic solvent mixture which included a surfactant. At the same time, plants selected from these crop and weed species and also pigweed (Amaranthus retroflexus), waterhemp_RES1 (ALS/Triazine resistant common waterhemp, Amaranthus rudis) and waterhemp_RES2 (ALS/HPPD resistant common waterhemp, Amaranthus rudis) were planted in pots containing a planting medium comprising spaghnum peat moss, vermiculite, wetting agent and starter nutrients treated with postemergence applications of some of the test chemicals formulated in the same manner. Plants ranged in height from 2 to 18 cm for postemergence treatments (1- to 4-leaf stage).
as §2, with “greenhouse” for “controlled growth environment”, “days,” for “days”, “E,” for “D,”

[6] = tested on: sandbur (southern sandbur, Cenchrus echinatus); experiment: Test F pre-/postemergence: sandbur
Source text: as §3
as §2, with “greenhouse” for “controlled growth environment”, “days,” for “days”, “E,” for “D,”

[7] = Postemergence, 31 g ai/ha, scale 0 to 100 (0 no effect, 100 complete control)
[8] = Postemergence, 62 g ai/ha, scale 0 to 100 (0 no effect, 100 complete control)
[9] = Postemergence, 125 g ai/ha, scale 0 to 100, 0 no effect, 100 complete control
[10] = Postemergence, 250 g ai/ha, scale 0 to 100 (0 no effect, 100 complete control)
[11] = Postemergence, 16 g ai/ha, scale 0 to 100
[12] = Preemergence, 62 g ai/ha, scale 0 to 100
[13] = Preemergence, 125 g ai/ha, scale 0 to 100
[14] = Preemergence, 250 g ai/ha, scale 0 to 100
[15] = Preemergence, 31 g ai/ha, scale 0 to 100, 0 no effect, 100 complete control
[16] = Flood (flooded paddy test), 125 g ai/ha, visual rating after 13 to 15 days
[17] = Flood (flooded paddy test), 250 g ai/ha, visual rating after 13 to 15 days
[18] = Preemergence, 16 g ai/ha, scale 0 to 100, 0 no effect, 100 complete control
[19] = Postemergence, 8 g ai/ha, scale 0 to 100
[20] = Postemergence, 31 g ai/ha, scale 0 to 100
[21] = Postemergence, 62 g ai/ha, scale 0 to 100
[22] = Postemergence, 125 g ai/ha, scale 0 to 100

Row | SMILES | Plant response rating: Galium [1, 7] | Plant response rating: Galium [1, 8] | Plant response rating: Galium [1, 9] | Plant response rating: Galium [1, 10] | Plant response rating, Galium [1, 11] | Plant response rating, Galium [1, 12] | Plant response rating, Galium [1, 13] | Plant response rating, Galium [1, 14] | Plant response rating: Pigweed [2, 7] | Plant response rating: Pigweed [2, 8] | Plant response rating: Pigweed [2, 9] | Plant response rating: Pigweed [2, 10] | Plant response rating, Pigweed [2, 11] | Plant response rating, Pigweed [2, 15] | Plant response rating, Pigweed [2, 12] | Plant response rating: Buckwheat, Wild [3, 7] | Plant response rating: Buckwheat, Wild [3, 8] | Plant response rating: Buckwheat, Wild [3, 9] | Plant response rating: Buckwheat, Wild [3, 10] | Plant response rating, Buckwheat, Wild [3, 11] | further results
1 | COc1nn(-c2ccc(C(F)(F)F)cc2)nc1Cc1ccnc(C(F)(F)F)c1 [Compound 15, 4-[[5-methoxy-2-[4-(trifluoromethyl)phenyl]-2H-1,2,3-triazol-4-yl]methyl]-2-(trifluoromethyl)pyridine] | 55 | 70 | 100 | 100 | 50 | 30 | 100 | 100 | 80 | 80 | 100 | 100 | 80 | 20 | 70 | 30 | 30 | 70 | 100 | 0 | Plant response rating, Pigweed [2, 13]: 98; Plant response rating, Pigweed [2, 14]: 100; Plant response rating, Buckwheat, Wild [3, 15]: 0; Plant response rating, Buckwheat, Wild [3, 12]: 100; Plant response rating, Buckwheat, Wild [3, 13]: 100; Plant response rating, Buckwheat, Wild [3, 14]: 100; pest or weed control at 62 g/ha ([4]; Echinochloa crus-galli, Flood (flooded paddy test), 62 g ai/ha, visual rating after 13 to 15 days, read-out: Plant response rating, Barnyardgrass): 65%; pest or weed control at 250 g/ha ([4]; Echinochloa crus-galli, Flood (flooded paddy test), 250 g ai/ha, visual rating after 13 to 15 days, read-out: Plant response rating, Barnyardgrass): 75%
2 | Cc1nn(-c2ccc(C(F)(F)F)cn2)nc1Oc1ccnc(C(F)(F)F)c1 [Compound 23] | 30 | 50 | 70 | 90 | 25 |  |  |  | 50 | 80 | 95 | 100 | 50 |  |  | 25 | 35 | 40 | 75 | 20 | Plant response rating, Barnyardgrass ([4]; Flood (flooded paddy test), 62 g ai/ha, visual rating after 13 to 15 days): 0; Plant response rating, Barnyardgrass [4, 16]: 20; Plant response rating, Barnyardgrass [4, 17]: 25; Plant response rating, Barnyardgrass ([4]; Flood, 31 g ai/ha): 0
3 | Cc1nn(-c2ccc(C(F)(F)F)cn2)nc1Cc1cccc(C(F)(F)F)c1 [Compound 106] | 40 | 40 | 40 | 60 | 20 | 0 | 40 | 80 | 50 | 60 | 90 | 90 | 10 | 0 | 0 | 0 | 10 | 10 | 100 | 0 | Plant response rating, Galium [1, 15]: 0; Plant response rating, Pigweed [2, 13]: 20; Plant response rating, Pigweed [2, 14]: 40; Plant response rating, Buckwheat, Wild [3, 15]: 50; Plant response rating, Buckwheat, Wild [3, 12]: 100; Plant response rating, Buckwheat, Wild [3, 13]: 100; Plant response rating, Buckwheat, Wild [3, 14]: 100; Plant response rating, Barnyardgrass [4, 16]: 20; Plant response rating, Barnyardgrass [4, 17]: 40; Plant response rating, Barnyardgrass ([4]; Flood, 31 g ai/ha): 0; Plant response rating, Barnyardgrass ([4]; Flood, 62 g ai/ha): 0
4 | Cc1nn(-c2ccc(C(F)(F)F)cc2)nc1Oc1ccnc(C(F)(F)F)c1 [Compound 120] | 60 | 70 | 98 | 100 | 50 | 65 | 100 | 100 | 90 | 90 | 100 | 100 | 0 | 100 | 100 | 75 | 85 | 95 | 98 | 50 | Plant response rating, Galium [1, 18]: 0; Plant response rating, Galium [1, 15]: 15; Plant response rating, Pigweed [2, 18]: 30; Plant response rating, Pigweed [2, 13]: 100; Plant response rating, Pigweed [2, 14]: 100; Plant response rating, Buckwheat, Wild [3, 12]: 10; Plant response rating, Buckwheat, Wild [3, 13]: 70; Plant response rating, Buckwheat, Wild [3, 14]: 100; Plant response rating, Barnyardgrass [4, 16]: 80; Plant response rating, Barnyardgrass [4, 17]: 80; Plant response rating, Barnyardgrass ([4]; Flood, 62 g ai/ha): 65
5 | COc1nn(-c2cccc(F)c2)nc1Cc1ccnc(C(F)(F)F)c1 [Compound 139] |  |  |  |  |  |  |  |  |  |  |  |  |  |  |  |  |  |  |  |  | Plant response rating, Ryegrass, Italian [5, 18]: 0; Plant response rating, Ryegrass, Italian [5, 15]: 5; Plant response rating, Ryegrass, Italian [5, 13]: 30; Plant response rating, Ryegrass, Italian [5, 14]: 95; Plant response rating, Sandbur [6, 18]: 0; Plant response rating, Sandbur [6, 15]: 5; Plant response rating, Sandbur [6, 13]: 35; Plant response rating, Sandbur [6, 14]: 40
6 | Cc1nn(-c2ccnc(Cl)c2)nc1Cc1ccnc(C(F)(F)F)c1 [Compound 141] |  |  |  |  |  |  |  |  |  |  |  |  |  |  |  |  |  |  |  |  | Plant response rating, Ryegrass, Italian [5, 19]: 10; Plant response rating, Ryegrass, Italian [5, 11]: 10; Plant response rating, Ryegrass, Italian [5, 20]: 15; Plant response rating, Ryegrass, Italian [5, 21]: 25; Plant response rating, Ryegrass, Italian [5, 22]: 40; Plant response rating, Sandbur [6, 19]: 10; Plant response rating, Sandbur [6, 11]: 10; Plant response rating, Sandbur [6, 20]: 20; Plant response rating, Sandbur [6, 21]: 30; Plant response rating, Sandbur [6, 22]: 35

— patent US9302999B2, “Substituted triazoles as herbicides” (E. I. DU PONT DE NEMOURS AND COMPANY, priority 2012, dated 2016)
